Results reported in patent publication US12690589B2, “Herbicidal compositions comprising pyroxasulfone” (BASF SE, priority 2024, dated 2026).

How the values were obtained:
[1] = system: Digitaria sanguinalis (DIGSA); assay: Post-emergence application in field trials, herbicidal activity (damage scale 0 to 100%); assay type: in vivo
How it was run: (§1)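 Field sites with natural or seeded weeds were sprayed post-emergence via flat fan nozzles in 200 l/ha water plus 0.25 v/v % MSO adjuvant, solo or mixed with pyroxasulfone and other partners. Damage was scored 0–100% versus untreated plants at indicated DAT. Colby expected values were used to judge synergy.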

Hordeum vulgare (HORVW) = assay: as above; assay type: in vivo
How it was run: as §1

CCOC(=O)COc1ccccc1Oc1nc(-n2c(=O)cc(C(F)(F)F)n(C)c2=O)c(F)cc1Cl [A-1, ethyl 2-[2-[[3-chloro-5-fluoro-6-[3-methyl-2,6-dioxo-4-(trifluoromethyl)pyrimidin-1-yl]-2-pyridyl]oxy]phenoxy]acetate]
% Herbicidal activity ([1]; 7 DAT, stage 22, height 10-15 cm, g ai/ha A-1 12.5, B 70, C-4 12.5): 80%
% Herbicidal activity ([1]; 7 DAT, stage 22, height 10-15 cm, g ai/ha A-1 18, B 70, C-4 12.5): 85%
% Herbicidal activity ([1]; 7 DAT, stage 22, height 10-15 cm, g ai/ha A-1 18, B 70, C-8 840): 80%
% Herbicidal activity ([1]; 7 DAT, stage 22, height 10-15 cm, g ai/ha A-1 18, B 70, C-12 252): 85%
% Herbicidal activity ([1]; 7 DAT, stage 22, height 10-15 cm, g ai/ha A-1 18, B 90, C-4 12.5): 85%
% Herbicidal activity ([1]; 7 DAT, stage 22, height 10-15 cm, g ai/ha A-1 18, B 90, C-8 840): 80%
% Herbicidal activity ([1]; 7 DAT, stage 22, height 10-15 cm, g ai/ha A-1 18, B 90, C-12 252): 85%
% Herbicidal activity ([1]; 21 DAT, stage 22, height 10-15 cm, g ai/ha A-1 12.5, B 70, C-4 12.5): 70%
% Herbicidal activity ([1]; 21 DAT, stage 22, height 10-15 cm, g ai/ha A-1 18, B 70, C-4 12.5): 80%
% Herbicidal activity ([1]; 21 DAT, stage 22, height 10-15 cm, g ai/ha A-1 18, B 70, C-12 252): 85%
% Herbicidal activity ([1]; 21 DAT, stage 22, height 10-15 cm, g ai/ha A-1 18, B 90, C-4 12.5): 80%
% Herbicidal activity ([1]; 21 DAT, stage 22, height 10-15 cm, g ai/ha A-1 18, B 90, C-12 252): 85%
% Herbicidal activity ([1]; 42 DAT, stage 22, height 10-15 cm, g ai/ha A-1 12.5, B 70): 65%
% Herbicidal activity ([1]; 42 DAT, stage 22, height 10-15 cm, g ai/ha A-1 12.5, B 70, C-4 12.5): 60%
% Herbicidal activity ([1]; 42 DAT, stage 22, height 10-15 cm, g ai/ha A-1 18, B 70): 80%
% Herbicidal activity ([1]; 42 DAT, stage 22, height 10-15 cm, g ai/ha A-1 18, B 70, C-4 12.5): 70%
% Herbicidal activity ([1]; 42 DAT, stage 22, height 10-15 cm, g ai/ha A-1 18, B 70, C-12 252): 70%
% Herbicidal activity ([1]; 42 DAT, stage 22, height 10-15 cm, g ai/ha A-1 18, B 90): 80%
% Herbicidal activity ([1]; 42 DAT, stage 22, height 10-15 cm, g ai/ha A-1 18, B 90, C-4 12.5): 70%
% Herbicidal activity ([1]; 42 DAT, stage 22, height 10-15 cm, g ai/ha A-1 18, B 90, C-12 252): 70%
% Herbicidal activity ([1]; DIGSA, growth stage 22, height 10-15 cm, A-1 12.5 g ai/ha, 7 DAT, Table 4.1): 80%
% Herbicidal activity ([1]; DIGSA, growth stage 22, height 10-15 cm, A-1 12.5 g ai/ha, 21 DAT, Table 4.3): 70%
% Herbicidal activity ([1]; DIGSA, growth stage 22, height 10-15 cm, A-1 18 g ai/ha, 7 DAT, Table 4.1): 80%
% Herbicidal activity ([1]; DIGSA, growth stage 22, height 10-15 cm, A-1 18 g ai/ha, 21 DAT, Table 4.3): 80%
% Herbicidal activity ([1]; Table 8.1, 7 DAT, stage 22, height 10-15 cm, g ai/ha A-1 18, B 70, C-12 1066): 80%
% Herbicidal activity ([1]; Table 8.2, 21 DAT, stage 22, height 10-15 cm, g ai/ha A-1 18, B 70, C-12 1066): 80%
% Herbicidal activity ([1]; Table 8.4, 42 DAT, stage 22, height 10-15 cm, g ai/ha A-1 18, B 70, C-12 1066): 60%
% Herbicidal activity (Hordeum vulgare (HORVW); 7 DAT, stage 23-29, height 20-25 cm, g ai/ha A-1 12.5, B 70, C-12 252): 70%
% Herbicidal activity (Hordeum vulgare (HORVW); 7 DAT, stage 23-29, height 20-25 cm, g ai/ha A-1 18, B 70, C-12 252): 70%
% Herbicidal activity (Hordeum vulgare (HORVW); 7 DAT, stage 23-29, height 20-25 cm, g ai/ha A-1 18, B 90, C-12 252): 70%
% Herbicidal activity (Hordeum vulgare (HORVW); 21 DAT, stage 23-29, height 20-25 cm, g ai/ha A-1 12.5, B 70, C-12 252): 70%
% Herbicidal activity (Hordeum vulgare (HORVW); 21 DAT, stage 23-29, height 20-25 cm, g ai/ha A-1 18, B 70, C-12 252): 70%
% Herbicidal activity (Hordeum vulgare (HORVW); 21 DAT, stage 23-29, height 20-25 cm, g ai/ha A-1 18, B 90, C-12 252): 70%
% Herbicidal activity (Hordeum vulgare (HORVW); 28 DAT, stage 23-29, height 20-25 cm, g ai/ha A-1 12.5, B 70, C-12 252): 70%
% Herbicidal activity (Hordeum vulgare (HORVW); 28 DAT, stage 23-29, height 20-25 cm, g ai/ha A-1 18, B 70, C-12 252): 70%
% Herbicidal activity (Hordeum vulgare (HORVW); 28 DAT, stage 23-29, height 20-25 cm, g ai/ha A-1 18, B 90, C-12 252): 70%
% Herbicidal activity (Hordeum vulgare (HORVW); HORVW, growth stage 23-29, height 20-25 cm, A-1 12.5 g ai/ha, 7 DAT, Table 4.2): 70%
% Herbicidal activity (Hordeum vulgare (HORVW); HORVW, growth stage 23-29, height 20-25 cm, A-1 12.5 g ai/ha, 21 DAT, Table 4.4): 70%
% Herbicidal activity (Hordeum vulgare (HORVW); HORVW, growth stage 23-29, height 20-25 cm, A-1 12.5 g ai/ha, 28 DAT, Table 4.5): 70%
